# Data taken from patent publication US20230365592A1 (Agios Pharmaceuticals, Inc., priority 2022, published 2023).
# Molecular target: T1, human PAH with the R408W mutation (Homo sapiens, UniProt P00439, R408W)
# T1 construct: expressed in transfected cells
# T1 sequence (P00439 1-452 R408W): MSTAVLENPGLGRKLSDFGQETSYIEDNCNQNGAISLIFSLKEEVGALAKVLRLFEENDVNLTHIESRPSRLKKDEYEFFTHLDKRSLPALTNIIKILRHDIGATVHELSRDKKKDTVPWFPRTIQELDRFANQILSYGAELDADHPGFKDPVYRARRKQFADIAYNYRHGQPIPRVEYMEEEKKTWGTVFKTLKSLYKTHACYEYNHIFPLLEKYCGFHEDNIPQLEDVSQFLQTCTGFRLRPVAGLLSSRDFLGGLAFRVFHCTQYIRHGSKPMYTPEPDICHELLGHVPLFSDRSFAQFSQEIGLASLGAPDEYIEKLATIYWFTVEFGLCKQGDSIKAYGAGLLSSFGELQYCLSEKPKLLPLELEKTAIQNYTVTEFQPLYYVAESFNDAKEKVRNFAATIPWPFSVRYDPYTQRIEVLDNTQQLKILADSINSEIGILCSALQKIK
# Assay: Cell Based Phenylalanine Flux Assay;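 note: after compound treatment, cells received sepiapterin plus isotope-labelled Phenylalanine for 4 hours, then labelled Tyrosine in the medium was quantified, 10-point 2-fold dilution series run in duplicate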
# Conditions: A375 cells expressing R408W PAH; 24 hrs with compound, then 20 µM sepiapterin and 800 µM 13C9,15N-Phenylalanine for 4 hours; 13C-Tyrosine by LC-MS; average where tested multiple times; read-out: AC50
row,Compound,AC50 [nM]
1,O=C(c1ncco1)N1CCc2[nH]cnc2C1c1cc2ccccn2n1 (stereo not drawn),1000 to 5000
2,Cn1nc(C(C)(C)C)cc1C(=O)N1CCc2[nH]cnc2C1c1cc2ccccn2n1 (stereo not drawn),1000 to 5000
3,Cc1nnc(N2CCc3[nH]cnc3C2c2cc3cccc(C(F)(F)F)n3n2)o1 (stereo not drawn),1000 to 5000
4,O=C(c1cnc(-c2ncccn2)o1)N1CCc2[nH]cnc2C1c1cc2c(F)cccn2n1 (stereo not drawn),> 5000
5,CN(C)CCc1ccc2c(C(=O)N3CCc4[nH]cnc4C3c3cc4cccc(C(F)(F)F)n4n3)cnn2c1 (stereo not drawn),1000 to 5000
6,"COc1cccn2nc(C3c4nc[nH]c4CCN3C(=O)c3nnc(-c4ccn(C)n4)o3)cc12 (single isomer, unassigned)",> 5000

# Same assay, conditions: A375 cells expressing human PAH R408W; 24 hrs compound incubation; 13C-Tyrosine by LC-MS; average where tested multiple times; read-out: AC50
row,Compound,AC50 [nM]
1,"Cc1cccn2nc([C@H]3c4nc[nH]c4CCN3c3nnc(-c4ncccc4F)o3)cc12 [Example 2340, (R)-2-(3-fluoropyridin-2-yl)-5-(4-(4-methylpyrazolo[1,5-a]pyridin-2-yl)-1,4,6,7-tetrahydro-5H-imidazo[4,5-c]pyridin-5-yl)-1,3,4-oxadiazole]",> 5000
2,"c1ccc(N2CCc3[nH]cnc3[C@@H]2c2cc3ccccn3n2)cc1 [Example 2238, (R)-5-phenyl-4-(pyrazolo[1,5-a]pyridin-2-yl)-4,5,6,7-tetrahydro-1H-imidazo[4,5-c]pyridine]",1000 to 5000
3,"O=C(c1ocnc1C1CC1)N1CCc2[nH]cnc2[C@@H]1c1cc2cccc(Cl)n2n1 [Example 2043, (R)-(4-(7-chloropyrazolo[1,5-a]pyridin-2-yl)-1,4,6,7-tetrahydro-5H-imidazo[4,5-c]pyridin-5-yl)(4-cyclopropyloxazol-5-yl)methanone]",1000 to 5000
4,"CC(C)c1cccn2nc([C@@H]3c4nc[nH]c4CCN3C(=O)c3nnc(-c4ncccn4)o3)cc12 [Example 1981, (S)-(4-(4-isopropylpyrazolo[1,5-a]pyridin-2-yl)-1,4,6,7-tetrahydro-5H-imidazo[4,5-c]pyridin-5-yl)(5-(pyrimidin-2-yl)-1,3,4-oxadiazol-2-yl)methanone]",500 to 1000
5,"Cc1cccc2cc([C@@H]3c4nc[nH]c4CCN3c3nnc(-c4c(F)cccc4F)o3)nn12 [Example 2091, (S)-2-(2,6-difluorophenyl)-5-(4-(7-methylpyrazolo[1,5-a]pyridin-2-yl)-1,4,6,7-tetrahydro-5H-imidazo[4,5-c]pyridin-5-yl)-1,3,4-oxadiazole]",< 500
6,"O=C(c1nnc(-c2ccccn2)s1)N1CCc2[nH]cnc2[C@H]1c1cc2ccccn2n1 [Example 1966, (S)-(4-(pyrazolo[1,5-a]pyridin-2-yl)-1,4,6,7-tetrahydro-5H-imidazo[4,5-c]pyridin-5-yl)(5-(pyridin-2-yl)-1,3,4-thiadiazol-2-yl)methanone]",< 500

# Same assay, conditions: A375 cells expressing human R408W PAH; 24 hrs compound incubation; 13C-Tyrosine by LC-MS; average where tested multiple times; read-out: AC50
row,Compound,AC50 [nM]
1,"CC(C)(C)c1nnc(C(=O)N2CCc3[nH]cnc3[C@@H]2c2cc3cccc(F)n3n2)o1 [Example 1248, (R)-(5-(tert-butyl)-1,3,4-oxadiazol-2-yl)(4-(7-fluoropyrazolo[1,5-a]pyridin-2-yl)-6,7-dihydro-1H-imidazo[4,5-c]pyridin-5(4H)-yl)methanone]",1000 to 5000
2,"Cc1ncoc1C(=O)N1CCc2[nH]cnc2[C@@H]1c1cc2c(C)cccn2n1 [Example 771, (R)-(4-methyloxazol-5-yl)(4-(4-methylpyrazolo[1,5-a]pyridin-2-yl)-6,7-dihydro-1H-imidazo[4,5-c]pyridin-5(4H)-yl)methanone]",1000 to 5000
3,"O=C(c1ocnc1C(F)F)N1CCc2[nH]cnc2[C@H]1c1cc2cccc(C(F)(F)F)n2n1 [Example 1154, (S)-(4-(difluoromethyl)oxazol-5-yl)(4-(7-(trifluoromethyl)pyrazolo[1,5-a]pyridin-2-yl)-6,7-dihydro-1H-imidazo[4,5-c]pyridin-5(4H)-yl)methanone]",< 500
4,"C[C@H](O)c1nc(C(F)F)c(C(=O)N2CCc3[nH]cnc3[C@@H]2c2cc3cccc(Cl)n3n2)o1 [Example 1194, ((R)-4-(7-chloropyrazolo[1,5-a]pyridin-2-yl)-6,7-dihydro-1H-imidazo[4,5-c]pyridin-5(4H)-yl)(4-(difluoromethyl)-2-((S)-1-hydroxyethyl)oxazol-5-yl)methanone]",1000 to 5000
5,"CC(C)(F)c1nc(C(F)F)c(C(=O)N2CCc3[nH]cnc3[C@@H]2c2cc3ccccn3n2)o1 [Example 1254, (R)-(4-(difluoromethyl)-2-(2-fluoropropan-2-yl)oxazol-5-yl)(4-(pyrazolo[1,5-a]pyridin-2-yl)-6,7-dihydro-1H-imidazo[4,5-c]pyridin-5(4H)-yl)methanone]",1000 to 5000
6,"O=C(c1nnc(C2CC2)o1)N1CCc2[nH]cnc2[C@H]1c1cc2ccccn2n1 [Example 620, (S)-(5-cyclopropyl-1,3,4-oxadiazol-2-yl)(4-(pyrazolo[1,5-a]pyridin-2-yl)-6,7-dihydro-1H-imidazo[4,5-c]pyridin-5(4H)-yl)methanone]",1000 to 5000
7,"Cc1cccn2nc([C@H]3c4nc[nH]c4CCN3C(=O)c3nnc(-c4cnccn4)o3)cc12 [Example 956, (R)-(4-(4-methylpyrazolo[1,5-a]pyridin-2-yl)-6,7-dihydro-1H-imidazo[4,5-c]pyridin-5(4H)-yl)(5-(pyrazin-2-yl)-1,3,4-oxadiazol-2-yl)methanone]",> 5000
8,"Cn1nc(C(F)F)nc1C(=O)N1CCc2[nH]cnc2[C@H]1c1cc2c(C(F)(F)F)cccn2n1 [Example 1060, (S)-(3-(difluoromethyl)-1-methyl-1H-1,2,4-triazol-5-yl)(4-(4-(trifluoromethyl)pyrazolo[1,5-a]pyridin-2-yl)-6,7-dihydro-1H-imidazo[4,5-c]pyridin-5(4H)-yl)methanone]",< 500
9,"O=C(c1cnn2cc(C3CC3)ccc12)N1CCc2[nH]cnc2[C@@H]1c1cc2c(Cl)cccn2n1 [Example 1769, (R)-(4-(4-chloropyrazolo[1,5-a]pyridin-2-yl)-6,7-dihydro-1H-imidazo[4,5-c]pyridin-5(4H)-yl)(6-cyclopropylpyrazolo[1,5-a]pyridin-3-yl)methanone]",1000 to 5000
10,"O=C(c1nnc(-c2ccn(C(F)(F)F)n2)o1)N1CCc2[nH]cnc2[C@@H]1c1cc2c(C(F)F)cccn2n1 [Example 1481, (R)-(4-(4-(difluoromethyl)pyrazolo[1,5-a]pyridin-2-yl)-6,7-dihydro-1H-imidazo[4,5-c]pyridin-5(4H)-yl)(5-(1-(trifluoromethyl)-1H-pyrazol-3-yl)-1,3,4-oxadiazol-2-yl)methanone]",1000 to 5000
11,"Clc1cccn2nc([C@@H]3c4nc[nH]c4CCN3c3ncccn3)cc12 [Example 1664, (S)4-(4-chloropyrazolo[1,5-a]pyridin-2-yl)-5-(pyrimidin-2-yl)-4,5,6,7-tetrahydro-1H-imidazo[4,5-c]pyridine]",< 500
12,"O=C(c1nnc(-c2ncccc2F)o1)N1CCc2[nH]cnc2[C@H]1c1cc2cccc(C(F)(F)F)n2n1 [Example 1034, (S)-(5-(3-fluoropyridin-2-yl)-1,3,4-oxadiazol-2-yl)(4-(7-(trifluoromethyl)pyrazolo[1,5-a]pyridin-2-yl)-6,7-dihydro-1H-imidazo[4,5-c]pyridin-5(4H)-yl)methanone]",500 to 1000
13,"Cc1nc([C@@H](C)O)oc1C(=O)N1CCc2[nH]cnc2[C@@H]1c1cc2c(F)cccn2n1 [Example 727, ((R)-4-(4-fluoropyrazolo[1,5-a]pyridin-2-yl)-6,7-dihydro-1H-imidazo[4,5-c]pyridin-5(4H)-yl)(2-((R)-1-hydroxyethyl)-4-methyloxazol-5-yl)methanone]",1000 to 5000
14,"Cn1cc(-c2nnc(C(=O)N3CCc4[nH]cnc4[C@H]3c3cc4ccccn4n3)o2)cn1 [Example 626, (S)-(5-(1-methyl-1H-pyrazol-4-yl)-1,3,4-oxadiazol-2-yl)(4-(pyrazolo[1,5-a]pyridin-2-yl)-6,7-dihydro-1H-imidazo[4,5-c]pyridin-5(4H)-yl)methanone]",1000 to 5000
15,"O=C(c1nnc(-c2ccn(C(F)F)n2)o1)N1CCc2[nH]cnc2[C@H]1c1cc2c(OC(F)(F)F)cccn2n1 [Example 1704, (S)-(5-(1-(difluoromethyl)-1H-pyrazol-3-yl)-1,3,4-oxadiazol-2-yl)(4-(4-(trifluoromethoxy)pyrazolo[1,5-a]pyridin-2-yl)-6,7-dihydro-1H-imidazo[4,5-c]pyridin-5(4H)-yl)methanone]",< 500
16,"O=C(c1nnc(-c2ncccc2F)o1)N1CCc2[nH]cnc2[C@H]1c1cc2cccc(F)n2n1 [Example 1459, (S)-(4-(7-fluoropyrazolo[1,5-a]pyridin-2-yl)-6,7-dihydro-1H-imidazo[4,5-c]pyridin-5(4H)-yl)(5-(3-fluoropyridin-2-yl)-1,3,4-oxadiazol-2-yl)methanone]",< 500
17,"Cn1nccc1-c1nnc(C(=O)N2CCc3[nH]cnc3[C@@H]2c2cc3cccc(C(F)F)n3n2)o1 [Example 1609, (R)-(4-(7-(difluoromethyl)pyrazolo[1,5-a]pyridin-2-yl)-6,7-dihydro-1H-imidazo[4,5-c]pyridin-5(4H)-yl)(5-(1-methyl-1H-pyrazol-5-yl)-1,3,4-oxadiazol-2-yl)methanone]",> 5000
18,"Cn1nc(C(F)F)cc1C(=O)N1CCc2[nH]cnc2[C@H]1c1cc2c(F)cccn2n1 [Example 864, (S)-(3-(difluoromethyl)-1-methyl-1H-pyrazol-5-yl)(4-(4-fluoropyrazolo[1,5-a]pyridin-2-yl)-6,7-dihydro-1H-imidazo[4,5-c]pyridin-5(4H)-yl)methanone]",< 500
